From PubChem BioAssay (NCI)
Values joined by “and” are separate entries in the source; they are usually repeats but may differ in a detail not shown here. Equal entries are not always repeated.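 Briefly, cells in 96-well plates were exposed to five compound concentrations for 48 h, and endpoints were estimated by linear interpolation. GI50 marks 50% less growth. Definition used: TGI = concentration required for complete inhibition of growth.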

Assays:
Test in all cases: NCI tumour cell line growth inhibition, 48 h
HT29 colon = tested on: HT29 colon
MDA-MB-231 breast = tested on: MDA-MB-231 breast
NCI-H23 lung = tested on: NCI-H23 lung
SF-295 CNS = tested on: SF-295 CNS
UACC-257 melanoma = tested on: UACC-257 melanoma
SN12K1 renal = tested on: SN12K1 renal
HCT-116 colon = tested on: HCT-116 colon
UACC-62 melanoma = tested on: UACC-62 melanoma
K-562 leukemia = tested on: K-562 leukemia
A549 NSCLC = tested on: A549 NSCLC
ACHN renal = tested on: ACHN renal
HOP-62 NSCLC = tested on: HOP-62 NSCLC
SK-MEL-5 melanoma = tested on: SK-MEL-5 melanoma
MDA-MB-435 = tested on: MDA-MB-435
COLO 205 colon = tested on: COLO 205 colon
HCC-2998 colon = tested on: HCC-2998 colon
UO-31 renal = tested on: UO-31 renal
HCT-15 colon = tested on: HCT-15 colon
HL-60(TB) leukemia = tested on: HL-60(TB) leukemia
SF-539 CNS = tested on: SF-539 CNS
DMS 114 small cell lung = tested on: DMS 114 small cell lung
OVCAR-4 ovarian = tested on: OVCAR-4 ovarian
NCI/ADR-RES ovarian = tested on: NCI/ADR-RES ovarian
NCI-H522 lung = tested on: NCI-H522 lung
SN12C renal = tested on: SN12C renal
A498 renal = tested on: A498 renal
OVCAR-3 ovarian = tested on: OVCAR-3 ovarian
TK-10 renal = tested on: TK-10 renal
SF-268 CNS = tested on: SF-268 CNS
MALME-3M melanoma = tested on: MALME-3M melanoma
RXF 393 renal = tested on: RXF 393 renal
PC-3 prostate = tested on: PC-3 prostate
NCI-H226 lung = tested on: NCI-H226 lung
NCI-H460 lung = tested on: NCI-H460 lung
786-0 renal = tested on: 786-0 renal
OVCAR-8 ovarian = tested on: OVCAR-8 ovarian
SK-MEL-28 melanoma = tested on: SK-MEL-28 melanoma
XF 498 CNS = tested on: XF 498 CNS
HS 578T breast = tested on: HS 578T breast
M19-MEL melanoma = tested on: M19-MEL melanoma
MOLT-4 leukemia = tested on: MOLT-4 leukemia
SNB-19 CNS = tested on: SNB-19 CNS
HOP-92 NSCLC = tested on: HOP-92 NSCLC
KM12 colon = tested on: KM12 colon
OVCAR-5 ovarian = tested on: OVCAR-5 ovarian
T-47D breast = tested on: T-47D breast
CCRF-CEM leukemia = tested on: CCRF-CEM leukemia
MCF7 breast = tested on: MCF7 breast
SW-620 colon = tested on: SW-620 colon
U251 CNS = tested on: U251 CNS
SNB-75 CNS = tested on: SNB-75 CNS
RPMI-8226 leukemia = tested on: RPMI-8226 leukemia
KM20L2 colon = tested on: KM20L2 colon
M14 melanoma = tested on: M14 melanoma
MDA-N = tested on: MDA-N
P388/ADR leukemia = tested on: P388/ADR leukemia
HOP-18 NSCLC = tested on: HOP-18 NSCLC
DLD-1 colon = tested on: DLD-1 colon
EKVX NSCLC = tested on: EKVX NSCLC
IGROV1 ovarian = tested on: IGROV1 ovarian
CAKI-1 renal = tested on: CAKI-1 renal
SK-MEL-2 melanoma = tested on: SK-MEL-2 melanoma
SNB-78 CNS = tested on: SNB-78 CNS
LXFL 529 NSCLC = tested on: LXFL 529 NSCLC
LOX IMVI melanoma = tested on: LOX IMVI melanoma
DMS 273 small cell lung = tested on: DMS 273 small cell lung
RXF-631 renal = tested on: RXF-631 renal
SK-OV-3 ovarian = tested on: SK-OV-3 ovarian

C=C1C(O)C2(O)OCC34C(CC5C(C)=CC(=O)C(O)C5(C)C23)OC(=O)C(OC(=O)C/C=C(\C)CCCCC)C14 (configuration not stated)
GI50 (HT29 colon): < 1 nM | GI50 (MDA-MB-231 breast): 30.2 nM | TGI (MDA-MB-231 breast): 21.8 nM and 162 nM | GI50 (NCI-H23 lung): < 1 nM | GI50 (SF-295 CNS): 1.3 nM | TGI (SF-295 CNS): 5.67 nM and 24.5 nM and 17.4 nM | GI50 (UACC-257 melanoma): < 1 nM | TGI (SN12K1 renal): 16 nM | GI50 (HCT-116 colon): < 1 nM | GI50 (UACC-62 melanoma): < 1 nM | GI50 (K-562 leukemia): < 1 nM | GI50 (A549 NSCLC): 1.37 nM | TGI (A549 NSCLC): 23.3 nM and 69.8 nM and 53.5 nM | TGI (ACHN renal): 8.56 nM and 51.8 nM | GI50 (HOP-62 NSCLC): < 1 nM | GI50 (SK-MEL-5 melanoma): < 1 nM | TGI (SK-MEL-5 melanoma): < 1 nM | TGI (MDA-MB-435): 2.21 nM | GI50 (COLO 205 colon): 1.23 nM | TGI (COLO 205 colon): 8.12 nM and 20.6 nM and 27.2 nM | GI50 (HCC-2998 colon): < 1 nM | TGI (HCC-2998 colon): 2.22 nM and 19 nM | GI50 (UO-31 renal): 48.3 nM and 258 nM | TGI (UO-31 renal): 269 nM and 1210 nM and 220 nM | GI50 (HCT-15 colon): 9.53 nM and 43.4 nM | TGI (HCT-15 colon): 50.3 nM and 352 nM and 151 nM | GI50 (HL-60(TB) leukemia): < 1 nM | GI50 (SF-539 CNS): < 1 nM | TGI (DMS 114 small cell lung): 16.1 nM | GI50 (OVCAR-4 ovarian): < 1 nM | GI50 (NCI/ADR-RES ovarian): 387 nM and 1460 nM | TGI (NCI/ADR-RES ovarian): 4220 nM and 6420 nM and 11500 nM | GI50 (NCI-H522 lung): < 1 nM | GI50 (SN12C renal): 1.57 nM | GI50 (A498 renal): 2.49 nM and 22.3 nM | TGI (A498 renal): 9.41 nM and 57 nM and 25.5 nM | GI50 (OVCAR-3 ovarian): < 1 nM | TGI (OVCAR-3 ovarian): < 1 nM | GI50 (TK-10 renal): 23.9 nM | TGI (TK-10 renal): 11.9 nM and 86.5 nM | GI50 (SF-268 CNS): < 1 nM | GI50 (MALME-3M melanoma): < 1 nM | TGI (MALME-3M melanoma): < 1 nM | GI50 (RXF 393 renal): < 1 nM | TGI (RXF 393 renal): 3.51 nM and 24.5 nM | TGI (PC-3 prostate): 3.2 nM and 14.1 nM | GI50 (NCI-H226 lung): < 1 nM | GI50 (NCI-H460 lung): < 1 nM | TGI (786-0 renal): 6.81 nM and 24.4 nM | GI50 (OVCAR-8 ovarian): < 1 nM | TGI (OVCAR-8 ovarian): 5.65 nM and 19.2 nM and 18.8 nM | GI50 (SK-MEL-28 melanoma): < 1 nM | TGI (XF 498 CNS): 23.2 nM | TGI (HS 578T breast): < 1 nM | TGI (M19-MEL melanoma): 17.3 nM | GI50 (MOLT-4 leukemia): < 1 nM | GI50 (SNB-19 CNS): < 1 nM | GI50 (HOP-92 NSCLC): 1.57 nM | TGI (HOP-92 NSCLC): 6.64 nM and 19.5 nM and 23.4 nM | GI50 (KM12 colon): < 1 nM | TGI (KM12 colon): 20.1 nM and 19 nM and 34.2 nM | GI50 (OVCAR-5 ovarian): 2.2 nM | TGI (T-47D breast): < 1 nM | GI50 (CCRF-CEM leukemia): < 1 nM | GI50 (MCF7 breast): < 1 nM | GI50 (SW-620 colon): < 1 nM | TGI (SW-620 colon): 15.8 nM and 119 nM and 26 nM | GI50 (U251 CNS): < 1 nM | GI50 (SNB-75 CNS): < 1 nM | TGI (SNB-75 CNS): 3.66 nM and 27.8 nM | GI50 (RPMI-8226 leukemia): < 1 nM | TGI (KM20L2 colon): 199 nM | TGI (M14 melanoma): 1.41 nM | TGI (MDA-N): 2.29 nM and 17.9 nM | TGI (P388/ADR leukemia): 454 nM | TGI (HOP-18 NSCLC): 1100 nM | TGI (DLD-1 colon): 159 nM | GI50 (EKVX NSCLC): 47.9 nM | GI50 (IGROV1 ovarian): < 1 nM | GI50 (CAKI-1 renal): 27.4 nM and 87.5 nM | GI50 (SK-MEL-2 melanoma): 1.13 nM | TGI (SK-MEL-2 melanoma): 9.85 nM and 42 nM | TGI (SNB-78 CNS): 37.3 nM

Cc1ccc(-c2c(N)[n+]([O-])c3ccccc3[n+]2[O-])cc1
TGI (LXFL 529 NSCLC): 18300 nM | TGI (HT29 colon): 31400 nM | TGI (NCI-H23 lung): 19500 nM | TGI (SF-295 CNS): 45100 nM | TGI (UACC-257 melanoma): 23500 nM | TGI (UACC-62 melanoma): 20100 nM | TGI (K-562 leukemia): > 100000 nM | TGI (A549 NSCLC): 62300 nM | TGI (ACHN renal): 29100 nM | TGI (HOP-62 NSCLC): 31000 nM | TGI (SK-MEL-5 melanoma): 24400 nM | TGI (COLO 205 colon): 34700 nM | TGI (HCC-2998 colon): 30100 nM | TGI (UO-31 renal): 29700 nM | TGI (HCT-15 colon): 15300 nM | TGI (HL-60(TB) leukemia): > 100000 nM | TGI (SF-539 CNS): 29300 nM | TGI (OVCAR-4 ovarian): 33100 nM | TGI (NCI-H522 lung): 3210 nM | TGI (SN12C renal): 27800 nM | TGI (OVCAR-3 ovarian): 30300 nM | TGI (TK-10 renal): 33000 nM | TGI (SF-268 CNS): 73800 nM | TGI (MALME-3M melanoma): 10800 nM | TGI (NCI-H226 lung): 39600 nM | TGI (NCI-H460 lung): 47000 nM | TGI (LOX IMVI melanoma): 25400 nM | TGI (786-0 renal): 28600 nM | TGI (OVCAR-8 ovarian): > 100000 nM | TGI (DMS 273 small cell lung): 29500 nM | TGI (SK-MEL-28 melanoma): 20000 nM | TGI (XF 498 CNS): 19500 nM | TGI (M19-MEL melanoma): 24800 nM | TGI (RXF-631 renal): 3190 nM | TGI (MOLT-4 leukemia): > 100000 nM | TGI (SNB-19 CNS): 25400 nM | TGI (HOP-92 NSCLC): > 100000 nM | TGI (KM12 colon): 26700 nM | TGI (OVCAR-5 ovarian): 32500 nM | TGI (CCRF-CEM leukemia): > 100000 nM | TGI (SW-620 colon): 23300 nM | TGI (U251 CNS): 27800 nM | TGI (SNB-75 CNS): 26000 nM | TGI (RPMI-8226 leukemia): > 100000 nM | TGI (KM20L2 colon): 38900 nM | TGI (M14 melanoma): 25300 nM | TGI (SK-OV-3 ovarian): 35900 nM | TGI (HOP-18 NSCLC): 29100 nM | TGI (DLD-1 colon): 28700 nM | TGI (EKVX NSCLC): 50200 nM | TGI (IGROV1 ovarian): 29800 nM | TGI (CAKI-1 renal): 9970 nM | TGI (SK-MEL-2 melanoma): 22900 nM | TGI (SNB-78 CNS): 37100 nM
